Laboratory results reported in ChEMBL document CHEMBL1134308, “Novel tropane-based irreversible ligands for the dopamine transporter” (J Med Chem, 2001).

What follows are compounds tested against Sodium-dependent dopamine transporter (Rattus norvegicus, UniProt P23977) (assay: Displacement of [3H]WIN-35 428 binding at dopamine transporter (DAT) in rat caudate putamen).
Assay type: tissue-based

Sequence of Sodium-dependent dopamine transporter (P23977 whole entry): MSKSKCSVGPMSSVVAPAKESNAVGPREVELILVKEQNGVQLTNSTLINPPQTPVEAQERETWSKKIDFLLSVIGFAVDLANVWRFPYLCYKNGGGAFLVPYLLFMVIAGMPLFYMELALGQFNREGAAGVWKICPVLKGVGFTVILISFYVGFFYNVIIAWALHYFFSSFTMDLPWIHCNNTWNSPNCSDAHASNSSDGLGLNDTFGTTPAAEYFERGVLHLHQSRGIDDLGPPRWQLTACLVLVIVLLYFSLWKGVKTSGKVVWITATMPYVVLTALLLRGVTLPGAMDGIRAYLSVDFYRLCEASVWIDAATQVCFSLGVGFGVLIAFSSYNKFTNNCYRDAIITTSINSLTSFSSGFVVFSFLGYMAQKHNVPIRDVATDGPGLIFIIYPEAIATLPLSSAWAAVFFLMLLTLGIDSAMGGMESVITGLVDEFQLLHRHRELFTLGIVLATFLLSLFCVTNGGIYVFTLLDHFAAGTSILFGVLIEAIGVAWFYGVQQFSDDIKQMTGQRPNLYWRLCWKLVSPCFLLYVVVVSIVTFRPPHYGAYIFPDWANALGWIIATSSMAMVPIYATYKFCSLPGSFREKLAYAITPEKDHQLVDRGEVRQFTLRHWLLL

Going from COC(=O)C1C(c2ccc(Cl)cc2)CC2CCC1N2CCCCc1ccc(N=[N+]=[N-])c(I)c1 (stereo unspecified) to CN1C2CCC1C(C(=O)OCCc1ccc(N=[N+]=[N-])c(I)c1)C(c1ccc(Cl)cc1)C2 (stereo unspecified), the Ki falls from 33 nM to 14.5 nM (2.3-fold).

Going from COC(=O)C1C(c2ccc(Cl)cc2)CC2CCC1N2CCCCc1ccc(N=C=S)cc1 (stereo unspecified) to Fc1ccc(C(O[C@H]2C[C@H]3CC[C@@H](C2)N3CCCCc2ccc(N=C=S)cc2)c2ccc(F)cc2)cc1, the Ki rises from 31.5 nM to 420 nM (13-fold).

Compared with [N-]=[N+]=Nc1ccc(CCCN2[C@@H]3CC[C@H]2C[C@@H](OC(c2ccc(F)cc2)c2ccc(F)cc2)C3)cc1I, Fc1ccc(C(O[C@H]2C[C@H]3CC[C@@H](C2)N3CCCc2ccc(N=C=S)cc2)c2ccc(F)cc2)cc1 is 2.2-fold higher in Ki: 284 nM for the first, 611 nM for the second.
